The target of the first experiment is T1, recombinant human mPGES-1 (Homo sapiens, UniProt O14684).
T1 construct: made in house; host or cells: Rosetta E. coli (microsomal/membrane fraction)
T1 sequence (O14684 1-152): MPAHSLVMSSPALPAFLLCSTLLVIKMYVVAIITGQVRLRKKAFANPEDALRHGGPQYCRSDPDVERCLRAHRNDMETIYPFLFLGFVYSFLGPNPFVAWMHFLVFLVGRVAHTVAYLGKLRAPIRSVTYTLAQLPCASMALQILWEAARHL
Briefly: mPGES-1 inhibition test (microsomes, PGH2 substrate, HTRF detection of PGE2). The following applies: inhibition of mPGES-1 at 1 μM (marked in cell). It counts as biochemical. Put shortly:
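Microsomes from E. coli expressing recombinant human mPGES-1 in 0.1 M KPi pH 7.4 with 2.5 mM GSH were preincubated with inhibitor 25 min at room temperature. PGH2 was then added, and the reaction was stopped after 1 min with acidified FeCl2. PGE2 was quantified by HTRF (665/620 nm ratio) against a synthetic PGE2 standard curve.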
On to `O=C(Nc1ccc(Br)c(F)c1)c1ccc2[nH]c(Nc3c(Cl)cccc3Cl)nc2c1` [Example 68, 2-(2,6-Dichloro-phenylamino)-1H-benzimidazole-5-carboxylic acid (4-bromo-3-fluoro-phenyl)-amide], for which the inhibition (as a rule, how much of the control response was suppressed) at 1 µM came out at 100%.

Take `COc1cc2[nH]c(Nc3c(Cl)ccc(C)c3F)nc2cc1C(=O)N[C@H]1CC[C@H](C(F)(F)F)CC1` [Example 622, 2-(6-Chloro-2-fluoro-3-methyl-phenylamino)-6-methoxy-N-(4-trans-trifluoromethyl-cyclohex-1-yl)-1H-benzimidazole-5-carboxamide]: the inhibition at 1 µM was found to be 96%. Take `CC(C)Oc1cc2c(cc1C(=O)NC1CCC(C(F)(F)F)CC1)nc(Nc1c(Cl)ccc(Cl)c1F)n2C` (stereo not drawn) [Example 644, 2-(3,6-Dichloro-2-fluoro-phenylamino)-6-isopropoxy-N-(4-trans-trifluoromethyl-cyclohex-1-yl)-1-methyl-1H-benzimidazole-5-carboxamide]: the inhibition at 1 µM worked out at 96%.

For the compound `COc1cc2c(cc1C(=O)NC1CCCCC1)nc(Nc1c(Cl)ccc(C)c1F)n2C` [Example 651, 2-(6-Chloro-2-fluoro-3-methyl-phenylamino)-6-methoxy-N-cyclohexyl-1-methyl-1H-benzimidazole-5-carboxamide], the inhibition at 1 µM is 100%.

The experiment is the same for the next values; noted with them: inhibition of mPGES-1 at 10 μM.
For the compound `Cn1c(CNC(=O)c2cc3nc(Nc4c(Cl)cccc4Cl)n(C)c3cc2F)nc2ccccc21` [Example 563, 2-(2,6-Dichlorophenylamino)-6-fluoro-1-methyl-N-((1-methyl-1H-benzo[d]imidazol-2-yl)methyl)-1H-benzimidazole-5-carboxamide], the inhibition at 10 µM worked out at 75%. For the compound `CC(C)c1ccccc1Nc1nc2cc(C(=O)Nc3ccc(Br)cc3)ccc2n1C` [Example 572, N-(4-Bromophenyl)-2-(2-isopropylphenylamino)-1-methyl-1H-benzimidazole-5-carboxamide], the inhibition at 10 µM is 45%. With `Cn1c(Nc2c(F)cccc2Cl)nc2cc(C(=O)Nc3ccc(Br)cc3)ccc21` [Example 381, N-(4-Bromophenyl)-2-(2-chloro-6-fluorophenylamino)-1-methyl-1H-benzimidazole-5-carboxamide], the inhibition at 10 µM worked out at 100%. On to `O=C(Nc1ccc(Cl)c(F)c1)c1cc2nc(Nc3c(Cl)cccc3Cl)[nH]c2cc1Cl` [Example 55, 2-(2,6-Dichloro-phenylamino)-6-chloro-1H-benzimidazol-5-carboxylic acid (4-chloro-3-fluoro-phenyl)-amide], for which the inhibition at 10 µM was 93%.

In the case of `Cc1ccc(Cl)c(Nc2nc3cc(C(=O)Nc4ccc(Br)cc4)ccc3[nH]2)c1Cl` [Example 322, 2-(2,6-Dichloro-3-methyl-phenylamino)-1H-benzimidazole-5-carboxylic acid (4-bromo-phenyl)-amide], the inhibition at 10 µM is 100%. `O=C(Nc1ccc(Br)cc1)c1cc2nc(Nc3c(F)ccc(F)c3Cl)[nH]c2cc1OCC(F)(F)F` [Example 595, 2-(2-Chloro-3,6-difluoro-phenylamino)-N-(4-bromophenyl)-6-(2,2,2-trifluorethoxy)-1H-benzimidazole-5-carboxamide]: the inhibition at 10 µM is 100%. Still for that read-out and setting: the figure for `O=C(Nc1cccc(Cl)c1)c1cc2nc(Nc3c(Cl)cccc3Cl)[nH]c2cc1Cl` [Example 56, 2-(2,6-Dichloro-phenylamino)-6-chloro-1H-benzimidazol-5-carboxylic acid (3-chloro-phenyl)-amide] is 100%; for `Cn1c(Nc2c(F)cccc2Cl)nc2cc(C(=O)NC3CCC(C)(C)CC3)c(F)cc21` [Example 430, 2-(2-Chloro-6-fluorophenylamino)-N-(4,4-dimethylcyclohexyl)-6-fluoro-1-methyl-1H-benzimidazole-5-carboxamide] it is 100%; for `COc1cc2[nH]c(Nc3c(Cl)cc(F)cc3Cl)nc2cc1C(=O)Nc1ccc(Br)cc1` [Example 581, 2-(2,6-Dichloro-4-fluoro-phenylamino)-6-methoxy-N-(4-bromo-phenyl)-1H-benzimidazole-5-carboxamide] it is 100%. The same measure, in the same setting: the figure for `Cc1ccccc1Nc1nc2cc(C(=O)Nc3ccccc3)ccc2[nH]1` [Example 10, 2-(o-Tolyl-amino)-1H-benzimidazole-5-carboxylic acid-phenylamide] is 98%; for `O=C(Nc1cc(Cl)cc(Cl)c1)c1ccc2[nH]c(Nc3c(Cl)cccc3Cl)nc2c1` [Example 112, 2-(2,6-Dichloro-phenylamino)-1H-benzimidazole-5-carboxylic acid (3,5-dichloro-phenyl)-amide] it is 97%; for `COc1cc2[nH]c(Nc3c(Cl)cccc3Cl)nc2cc1C(=O)NCc1ncccc1C` [Example 577, 2-(2,6-Dichlorophenylamino)-6-methoxy-N-((3-methylpyridin-2-yl)-methyl)-1H-benzimidazole-5-carboxamide] it is 100%. Turning to `Cn1c(Nc2c(Cl)cccc2Cl)nc2cc(C(=O)NC3CCCCC3O)ccc21` (centres unmarked) [Example 237, 2-(2,6-Dichloro-phenylamino)-1-methyl-1H-benzimidazole-5-carboxylic acid (2-hydroxy-cyclohexyl)-amide], the inhibition at 10 µM stood at 87%. Same read-out and setting: the figure for `O=C(NCC1CCOCC1)c1ccc2[nH]c(Nc3c(Cl)cccc3Cl)nc2c1` [Example 217, 2-(2,6-Dichloro-phenylamino)-1H-benzimidazole-5-carboxylic acid (tetrahydro-pyran-4-ylmethyl)-amide] is 54%. Consider `Cn1c(Nc2c(Cl)cccc2Cl)nc2cc(C(=O)NCCc3ccccn3)ccc21` [Example 258, 2-(2,6-Dichloro-phenylamino)-1-methyl-1H-benzimidazole-5-carboxylic acid (2-pyridin-2-yl-ethyl)-amide], for which the inhibition at 10 µM is 83%. For the compound `Cn1c(Nc2c(Cl)cccc2Cl)nc2cc(C(=O)NC34CC5CC(CC(C5)C3)C4)c(F)cc21` [Example 165, 2-(2,6-Dichloro-phenylamino)-6-fluoro-1-methyl-1H-benzimidazole-5-carboxylic acid adamantan-1-ylamide], the inhibition at 10 µM worked out at 98%. Take `O=C(Nc1cc(Cl)ccn1)c1ccc2c(c1)nc(Nc1c(Cl)cccc1Cl)n2CCCO` [Example 263, 2-(2,6-Dichloro-phenylamino)-1-(3-hydroxy-propyl)-1H-benzimidazole-5-carboxylic acid (4-chloro-pyridin-2-yl)-amide]: the inhibition at 10 µM stood at 93%. For `Cc1nc(NC(=O)c2ccc3[nH]c(Nc4c(Cl)cccc4Cl)nc3c2)cc2c1CCCC2` [Example 132, 2-(2,6-Dichloro-phenylamino)-1H-benzimidazole-5-carboxylic acid (1-methyl-5,6,7,8-tetrahydro-isoquinolin-3-yl)-amide], the inhibition at 10 µM stood at 97%. Same read-out and setting: under `Cn1c(Nc2c(F)cccc2Cl)nc2cc(C(=O)NC3CCC4(CC3)CC4)c(F)cc21` [Example 384] stands 100%; under `CS(=O)(=O)NCCCn1c(Nc2c(Cl)cccc2Cl)nc2cc(C(=O)Nc3cc(Cl)ccn3)ccc21` [Example 206, 2-(2,6-Dichloro-phenylamino)-1-(3-methanesulfonylamino-propyl)-1H-benzimidazole-5-carboxylic acid (4-chloro-pyridin-2-yl)-amide], 100%; under `O=C(NCC1CCCOC1)c1ccc2[nH]c(Nc3c(Cl)cccc3Cl)nc2c1` (centres unmarked) [Example 227, 2-(2,6-Dichloro-phenylamino)-1H-benzimidazole-5-carboxylic acid (tetrahydro-pyran-3-ylmethyl)-amide], 77%. For `O=C(N[C@H]1CC[C@H](C(F)(F)F)CC1)c1cc2nc(Nc3c(Cl)ccc(Cl)c3F)[nH]c2cc1F` [Example 597, 2-(3,6-Dichloro-2-fluoro-phenylamino)-N-(trans-4-trifluoromethyl-cyclohex-1-yl)-6-fluoro-1H-benzimidazole-5-carboxamide], the inhibition at 10 µM was determined as 100%. The same measure, in the same setting: the figure for `COc1cc2[nH]c(Nc3c(Cl)cc(F)cc3Cl)nc2cc1C(=O)NCc1ncccc1C(F)(F)F` [Example 580, 2-(2,6-Dichloro-4-fluoro-phenylamino)-6-methoxy-N-((3-trifluoromethyl-pyridin-2-yl)-methyl)-1H-benzimidazole-5-carboxamide] is 100%; for `O=C(NCC1CCCC1)c1ccc2[nH]c(Nc3c(Cl)cccc3Cl)nc2c1` [Example 219, 2-(2,6-Dichloro-phenylamino)-1H-benzimidazole-5-carboxylic acid cyclopentylmethyl-amide] it is 100%. For `O=C(Nc1ccc(Br)cc1)c1ccc2[nH]c(Nc3c(Cl)cccc3Cl)nc2c1` [Example 66, 2-(2,6-Dichloro-phenylamino)-1H-benzimidazole-5-carboxylic acid (4-bromo-phenyl)-amide], the inhibition at 10 µM worked out at 100%.

As for `CCOc1cc2[nH]c(Nc3c(Cl)ccc(Cl)c3F)nc2cc1C(=O)Nc1ccc(Br)cc1` [Example 604, 2-(3,6-Dichloro-2-fluoro-phenylamino)-N-(4-bromo-phenyl)-6-ethoxy-1H-benzimidazole-5-carboxamide], the inhibition at 10 µM was determined as 100%. In the case of `O=C(Nc1ccc(Br)cc1)c1cc2nc(Nc3c(Cl)cc(F)cc3Cl)[nH]c2cc1OCC(F)F` [Example 586, 2-(2,6-Dichloro-4-fluoro-phenylamino)-N-(4-bromo-phenyl)-6-(2,2-difluoroethoxy)-1H-benzimidazole-5-carboxamide], the inhibition at 10 µM was 100%.

For the compound `O=C(Nc1ncccc1C(F)(F)F)c1ccc2[nH]c(Nc3c(Cl)cccc3Cl)nc2c1` [Example 190, 2-(2,6-Dichloro-phenylamino)-1H-benzimidazole-5-carboxylic acid (3-trifluoromethyl-pyridin-2-yl)-amide], the inhibition at 10 µM stood at 75%.
